{"source": "patent US10947188B2", "about": "“Small molecule ferroptosis inducers” (THE TRUSTEES OF COLUMBIA UNIVERSITY IN THE CITY OF NEW YORK, priority 2016, dated 2021)", "key": {"HT-1080 cells [1]": {"system": "HT-1080 cells", "assay": "Lethality of commercially available CIL41/70 structural analogs", "type": "cell-based", "conditions": "Homo sapiens, tested once in technical triplicates", "in_short": "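HT-1080 cells (1,000/well) dosed at seeding with twofold 12-point dilutions of lethal compounds. Viability read by Alamar Blue fluorescence (530/590 nm) after 6 h, normalized to media and vehicle wells. Analogs tested once, in technical triplicate.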"}, "HT-1080 cells [2]": {"system": "HT-1080 cells", "assay": "Analysis of lipid ROS generation (C11-BODIPY 581/591 flow cytometry)", "type": "cell-based", "conditions": "HT-1080; 6 h; with or without deferoxamine", "procedure": "Cells were treated with test compounds, trypsinized, pelleted, and washed once with PBS. For lipophilic or aqueous ROS detection, cells were re-suspended in Hanks' Balanced Salt Solution (HBSS; […] Cells were then pelleted, re-suspended in 500 μL HBSS, strained through a 40-μm cell strainer (BD Falcon), and analyzed using a BD Accuri C6 flow cytometer (BD Biosciences). Both dyes were measured in the FL1 channel. Experiments were done in biological triplicates."}, "GPX4": {"target": "T1, GPX4 (Homo sapiens, UniProt P36969)", "T1 construct": "Cells were sonicated to make cell lysates that were then cleared by centrifugation; endogenous in cells; host or cells: BJeLR cells (lysate of compound-treated cells)", "T1 sequence (P36969 1-197)": "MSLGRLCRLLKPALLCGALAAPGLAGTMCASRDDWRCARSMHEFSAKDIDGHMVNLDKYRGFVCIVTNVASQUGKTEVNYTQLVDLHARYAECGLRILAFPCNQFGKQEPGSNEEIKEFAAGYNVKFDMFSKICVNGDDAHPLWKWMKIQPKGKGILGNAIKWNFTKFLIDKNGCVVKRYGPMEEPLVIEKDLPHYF", "assay": "GPX4 enzymatic activity assay in lysates of treated cells (LC-MS)", "type": "cell-based", "conditions": "BJeLR; 5 μM FIN56 for 10 h", "procedure": "Seeded 17 million BJeLR cells in 225-cm^2 tissue culture flasks (Corning). We then added vehicle (0.1% DMSO for 11 h) or test compound (10 μM erastin for 11 h, 0.5 μM (1S,3R)-RSL3 for 2 h, or 5 μM FIN56 for 10 h). The GPX4 enzymatic activity assay was performed as described previously (Yang et al. 2014). Briefly, 10 million cells were resuspended in cell lysis buffer. Cells were sonicated to make cell lysates that were then cleared by centrifugation at 14,000 r.p.m. for 10 min. The protein concentration of the cleared cell lysates was determined via Bradford protein assay. Mixed 200 μg of cellular protein with phosphatidyl choline hydroperoxide, a GPX4-specific substrate, and reduced glutathione, a GPX4 cofactor. The mixture was incubated at 37° C. for 30 min and then subjected to lipid extraction using chloroform:methanol (2:1) solution. The lipid extract was evaporated using a Rotavap and re-dissolved in 100% ethanol before being injected into the LC-MS instrument for 2-linoleoyl1-palmitoyl-sn-glycero-3-phosphocholine (PLPC) quantitation."}, "GPX1": {"system": "GPX1", "assay": "Western blotting of GPX1 protein abundance", "type": "cell-based, human", "conditions": "BJeLR; FIN56 5 μM, 10 h", "procedure": "Seeded 300,000 cells (HT-1080 or BJeLR) per well in six-well plates. For cotreatment, ferroptosis inducers (10 μM erastin for 11 h, 0.5 μM (1S, 3R)-RSL3 for 2 h, or 5 μM FIN56) and 100 μM α-tocopherol were added to cell culture at the same time, and cells were then incubated for 10 h (FIG. 2E). When other death-modulating compounds (100 nM sodium selenite, 1 μM cerivastatin, 100 μg/mL mevalonic acid, 30 μM C75, or 2 μM cerulenin) were used in cotreatments, cells were pre-incubated with the modulators for 24 h before being treated with ferroptosis inducers for 6 h. Cell lysis, SDS-PAGE and protein transfer to PVDF membrane were performed as previously described (Dixon et al. 2012). We used the following antibodies: anti-human α-tubulin (Santa Cruz Biotechnology, sc-32293, 1:10,000 dilution), anti-human GPX4 (Abcam, ab41787, 1:2,000 dilution), anti-human GPX1 (R&D Systems, AF3798, 1:1,000 dilution), and anti-human SQS (Abcam, ab109723 for full-length, ab195046 for truncated, both at 1:1,000 dilution). Secondary antibodies were from LI-COR (1:3,000 dilution). The PVDF membranes labeled with primary and secondary antibodies were scanned using an Odyssey Imaging System (LI-COR). Experiments were performed in biological triplicates, and the mean±s.e. of intensity was plotted."}, "NCI60 cell line panel": {"system": "NCI60 cell line panel", "assay": "Cell-line selectivity in the NCI60 cell line panel", "type": "cell-based", "excerpt": "Previously reported ferroptosis inducers either deplete glutathione (by inhibiting cystine uptake) or are covalent GPX4 inhibitors."}}, "data": [{"smiles": "N/C(=N\\OC(=O)C12CC3CC(CC(C3)C1)C2)c1ccccc1", "note": "[CIL41]", "values": [{"measurement": "EC50", "setting": "HT-1080 cells [1]", "result": 2.8, "unit": "mg/L"}]}, {"smiles": "O=S(=O)(c1ccc2c(c1)C(=NO)c1cc(S(=O)(=O)N3CCCCC3)ccc1-2)N1CCCCC1", "note": "[CIL56, 2,7-bis(piperidin-1-ylsulfonyl)-9H-fluoren-9-one oxime]", "values": [{"measurement": "lipid ROS generation (BODIPY-581/591 C11)", "setting": "HT-1080 cells [2]", "result": "induced iron-dependent ROS"}]}, {"smiles": "O=S(=O)(NC1CCCCC1)c1ccc2c(c1)C(=NO)c1cc(S(=O)(=O)NC3CCCCC3)ccc1-2", "note": "[FIN56, N2,N7-dicyclohexyl-9-(hydroxyimino)-9H-fluorene-2,7-disulfonamide]", "values": [{"measurement": "GPX4 activity in cell lysates", "setting": "GPX4", "result": "loss of GPX4 activity"}, {"measurement": "abundance of GPX1 protein", "setting": "GPX1", "result": "but not that of the related selenoprotein GPX1, was substantially decreased"}, {"measurement": "cell-line selectivity pattern in NCI60", "setting": "NCI60 cell line panel", "result": "more similar to other GPX4 inhibitors than to GSH-depleting compounds"}]}]}
